From BindingDB's records for doi:10.1016/s0960-894x(99)00552-1 (Smithkline Beecham Pharmaceuticals, 1999)

Assay: Inhibitory activity against IgE receptor

Question: For CC(C)(C)[C@H](NC(=O)C(C[C@H]1CCc2ccccc2C1)[C@H](O)C(=O)NO)C(N)=O (some centres not stated), which IC50 is on record?
Answer: The IC50 was 70 nM.

Question: Which IC50 does the source give for CC(C)(C)[C@H](NC(=O)C(C[C@@H]1CCc2ccccc2C1)[C@H](O)C(=O)NO)C(N)=O (some centres not stated) here?
Answer: The IC50 was 70 nM.

Question: With CNC(=O)[C@H](Cc1ccccc1)NC(=O)[C@H](Cc1cc2cccc(OC)c2o1)[C@H](O)C(=O)NO [(2R,3S)-2,N*1*-Dihydroxy-3-(7-methoxy-benzofuran-2-ylmethyl)-N*4*-((S)-1-methylcarbamoyl-2-phenyl-ethyl)-succinamide] as the compound, how does the IC50 read?
Answer: Its IC50 is > 20000 nM.

Question: With CNC(=O)[C@H](Cc1ccccc1)NC(=O)[C@H](Cc1ccc2ccccc2c1)[C@H](O)C(=O)NO [(2R,3S)-2,N*1*-Dihydroxy-N*4*-((S)-1-methylcarbamoyl-2-phenyl-ethyl)-3-naphthalen-2-ylmethyl-succinamide] as the compound, how does the IC50 read?
Answer: The IC50 was 400 nM.

Question: Which IC50 does the source give for NC(=O)[C@H](Cc1ccccc1)NC(=O)[C@H](Cc1ccc2ccc(OCc3ccccc3)cc2c1)[C@H](O)C(=O)NO [(2R,3S)-2-(7-Benzyloxy-naphthalen-2-ylmethyl)-N*1*-((S)-1-carbamoyl-2-phenyl-ethyl)-3,N*4*-dihydroxy-succinamide] here?
Answer: Its IC50 is > 20000 nM.

Question: Which IC50 does the source give for NC(=O)[C@H](Cc1ccccc1)NC(=O)[C@H](Cc1cc2ccccc2s1)[C@H](O)C(=O)NO [(2R,3S)-2-Benzo[b]thiophen-2-ylmethyl-N*1*-((S)-1-carbamoyl-2-phenyl-ethyl)-3,N*4*-dihydroxy-succinamide] here?
Answer: Its IC50 is 20 nM.

Question: Which IC50 does the source give for CNC(=O)[C@H](Cc1ccccc1)NC(=O)[C@H](Cc1csc2ccccc12)[C@H](O)C(=O)NO [(2R,3S)-2-Benzo[b]thiophen-3-ylmethyl-3,N*4*-dihydroxy-N*1*-((S)-1-methylcarbamoyl-2-phenyl-ethyl)-succinamide] here?
Answer: The IC50 was > 1000 nM.

Question: Which IC50 does the source give for CNC(=O)[C@H](Cc1ccccc1)NC(=O)[C@H](Cc1cc2ccccc2o1)[C@H](O)C(=O)NO [(2R,3S)-2-Benzofuran-2-ylmethyl-3,N*4*-dihydroxy-N*1*-((S)-1-methylcarbamoyl-2-phenyl-ethyl)-succinamide] here?
Answer: The IC50 was 100 nM.

Question: With NC(=O)[C@H](Cc1ccccc1)NC(=O)[C@H](Cc1nc2ccccc2s1)[C@H](O)C(=O)NO [(2R,3S)-2-Benzothiazol-2-ylmethyl-N*1*-((S)-1-carbamoyl-2-phenyl-ethyl)-3,N*4*-dihydroxy-succinamide] as the compound, how does the IC50 read?
Answer: Its IC50 is 320 nM.

Question: With CC(C)(C)[C@H](NC(=O)[C@H](Cc1ccc2cc(F)c(F)cc2c1)[C@H](O)C(=O)NO)C(N)=O [(2R,3S)-N*1*-((S)-1-Carbamoyl-2,2-dimethyl-propyl)-2-(6,7-difluoro-naphthalen-2-ylmethyl)-3,N*4*-dihydroxy-succinamide] as the compound, how does the IC50 read?
Answer: The IC50 was > 1000 nM.

Question: For CC(C)(C)[C@H](NC(=O)[C@H](Cc1ccc2ccc(F)cc2c1)[C@H](O)C(=O)NO)C(N)=O [(2R,3S)-N*1*-((S)-1-Carbamoyl-2,2-dimethyl-propyl)-2-(7-fluoro-naphthalen-2-ylmethyl)-3,N*4*-dihydroxy-succinamide], which IC50 is on record?
Answer: The IC50 was 80 nM.

Question: For NC(=O)[C@H](Cc1ccccc1)NC(=O)[C@H](Cc1sc2ccccc2c1Cl)[C@H](O)C(=O)NO [(2R,3S)-N*1*-((S)-1-Carbamoyl-2-phenyl-ethyl)-2-(3-chloro-benzo[b]thiophen-2-ylmethyl)-3,N*4*-dihydroxy-succinamide], which IC50 is on record?
Answer: The IC50 was > 10000 nM.

Question: For NC(=O)[C@H](Cc1ccccc1)NC(=O)[C@H](Cc1ccc2cc(F)ccc2c1)[C@H](O)C(=O)NO [(2R,3S)-N*1*-((S)-1-Carbamoyl-2-phenyl-ethyl)-2-(6-fluoro-naphthalen-2-ylmethyl)-3,N*4*-dihydroxy-succinamide], which IC50 is on record?
Answer: Its IC50 is 220 nM.

Question: Which IC50 does the source give for NC(=O)[C@H](Cc1ccccc1)NC(=O)[C@H](Cc1ccc2ccc(F)cc2c1)[C@H](O)C(=O)NO [(2R,3S)-N*1*-((S)-1-Carbamoyl-2-phenyl-ethyl)-2-(7-fluoro-naphthalen-2-ylmethyl)-3,N*4*-dihydroxy-succinamide] here?
Answer: Its IC50 is 100 nM.

Question: Which IC50 does the source give for CC(C)(C)[C@H](NC(=O)[C@H](Cc1ccc2ccccc2c1)[C@H](O)C(=O)NO)C(N)=O [(2R,3S)-N*4*-((S)-1-Carbamoyl-2,2-dimethyl-propyl)-2,N*1*-dihydroxy-3-naphthalen-2-ylmethyl-succinamide] here?
Answer: The IC50 was 20 nM.

Question: For CC(C)(C)[C@H](NC(=O)[C@H](Cc1cnc2ccccc2c1)[C@H](O)C(=O)NO)C(N)=O [(2R,3S)-N*4*-((S)-1-Carbamoyl-2,2-dimethyl-propyl)-2,N*1*-dihydroxy-3-quinolin-3-ylmethyl-succinamide], which IC50 is on record?
Answer: Its IC50 is 20 nM.

Question: With CC(C)(C)[C@H](NC(=O)[C@H](Cc1ccc2ncccc2c1)[C@H](O)C(=O)NO)C(N)=O [(2R,3S)-N*4*-((S)-1-Carbamoyl-2,2-dimethyl-propyl)-2,N*1*-dihydroxy-3-quinolin-6-ylmethyl-succinamide] as the compound, how does the IC50 read?
Answer: Its IC50 is 1000 nM.

Question: For NC(=O)[C@H](Cc1ccccc1)NC(=O)[C@H](Cc1ccc2ccc(O)cc2c1)[C@H](O)C(=O)NO [(2R,3S)-N*4*-((S)-1-Carbamoyl-2-phenyl-ethyl)-2,N*1*-dihydroxy-3-(7-hydroxy-naphthalen-2-ylmethyl)-succinamide], which IC50 is on record?
Answer: Its IC50 is 760 nM.

Question: For NC(=O)[C@H](Cc1ccccc1)NC(=O)[C@H](Cc1ccc2ccccc2c1)[C@H](O)C(=O)NO [(2R,3S)-N*4*-((S)-1-Carbamoyl-2-phenyl-ethyl)-2,N*1*-dihydroxy-3-naphthalen-2-ylmethyl-succinamide], which IC50 is on record?
Answer: The IC50 was 600 nM.

Question: With CNC(=O)[C@@H](NC(=O)[C@H](Cc1ccc2c(c1)CCCC2)[C@H](O)C(=O)NO)C(C)(C)C [(2R,3S)-N*4*-((S)-2,2-Dimethyl-1-methylcarbamoyl-propyl)-2,N*1*-dihydroxy-3-(5,6,7,8-tetrahydro-naphthalen-2-ylmethyl)-succinamide] as the compound, how does the IC50 read?
Answer: The IC50 was > 10000 nM.

Question: With CNC(=O)[C@@H](NC(=O)[C@H](Cc1ccc2ccccc2c1)[C@H](O)C(=O)NO)C(C)(C)C [(2R,3S)-N*4*-((S)-2,2-Dimethyl-1-methylcarbamoyl-propyl)-2,N*1*-dihydroxy-3-naphthalen-2-ylmethyl-succinamide] as the compound, how does the IC50 read?
Answer: The IC50 was 230 nM.

Question: With O=C(C[C@@H](Cc1ccc2ccccc2c1)C(=O)N[C@@H](Cc1ccccc1)C(=O)NCc1ccccc1)NO [(R)-N*1*-((S)-1-Benzylcarbamoyl-2-phenyl-ethyl)-N*4*-hydroxy-2-naphthalen-2-ylmethyl-succinamide] as the compound, how does the IC50 read?
Answer: The IC50 was 1000 nM.
